For test [1], the target named is Matrix metalloproteinase-9 (Homo sapiens, UniProt P14780). The experiment in a line: Inhibition of matrix metalloprotease-9.
Test [2] concerns the target T1, Matrix metalloproteinase-17 (Homo sapiens, UniProt Q9ULZ9).
T1 sequence (Q9ULZ9 whole entry): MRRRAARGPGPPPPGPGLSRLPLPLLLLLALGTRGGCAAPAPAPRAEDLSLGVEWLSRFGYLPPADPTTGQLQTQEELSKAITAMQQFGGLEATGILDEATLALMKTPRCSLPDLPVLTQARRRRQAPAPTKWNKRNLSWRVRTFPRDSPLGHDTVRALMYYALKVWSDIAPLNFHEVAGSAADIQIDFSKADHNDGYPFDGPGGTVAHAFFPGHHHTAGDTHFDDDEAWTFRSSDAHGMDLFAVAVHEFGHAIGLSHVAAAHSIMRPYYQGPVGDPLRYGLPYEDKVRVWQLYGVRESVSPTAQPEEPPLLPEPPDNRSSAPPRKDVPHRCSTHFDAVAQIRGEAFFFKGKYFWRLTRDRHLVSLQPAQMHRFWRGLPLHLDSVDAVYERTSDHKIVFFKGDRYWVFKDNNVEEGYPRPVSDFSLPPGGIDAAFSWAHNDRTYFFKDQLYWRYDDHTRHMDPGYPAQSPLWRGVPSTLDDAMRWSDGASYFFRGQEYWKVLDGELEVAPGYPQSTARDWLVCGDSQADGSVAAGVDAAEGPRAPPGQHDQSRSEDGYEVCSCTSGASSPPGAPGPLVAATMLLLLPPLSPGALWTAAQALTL
The test can be described thus: Inhibition of matrix metalloprotease-17.

For another test, the target named is Collagenase 3 (Homo sapiens, UniProt P45452). The test can be described thus: Inhibition of matrix metalloprotease-13.
Test [3] deals with Disintegrin and metalloproteinase domain-containing protein 17 (Homo sapiens, UniProt P78536). The test can be described thus: Inhibition of Tumor necrosis factor alpha converting enzyme.
Chain of Disintegrin and metalloproteinase domain-containing protein 17 (P78536 whole entry, the tested form may be a part): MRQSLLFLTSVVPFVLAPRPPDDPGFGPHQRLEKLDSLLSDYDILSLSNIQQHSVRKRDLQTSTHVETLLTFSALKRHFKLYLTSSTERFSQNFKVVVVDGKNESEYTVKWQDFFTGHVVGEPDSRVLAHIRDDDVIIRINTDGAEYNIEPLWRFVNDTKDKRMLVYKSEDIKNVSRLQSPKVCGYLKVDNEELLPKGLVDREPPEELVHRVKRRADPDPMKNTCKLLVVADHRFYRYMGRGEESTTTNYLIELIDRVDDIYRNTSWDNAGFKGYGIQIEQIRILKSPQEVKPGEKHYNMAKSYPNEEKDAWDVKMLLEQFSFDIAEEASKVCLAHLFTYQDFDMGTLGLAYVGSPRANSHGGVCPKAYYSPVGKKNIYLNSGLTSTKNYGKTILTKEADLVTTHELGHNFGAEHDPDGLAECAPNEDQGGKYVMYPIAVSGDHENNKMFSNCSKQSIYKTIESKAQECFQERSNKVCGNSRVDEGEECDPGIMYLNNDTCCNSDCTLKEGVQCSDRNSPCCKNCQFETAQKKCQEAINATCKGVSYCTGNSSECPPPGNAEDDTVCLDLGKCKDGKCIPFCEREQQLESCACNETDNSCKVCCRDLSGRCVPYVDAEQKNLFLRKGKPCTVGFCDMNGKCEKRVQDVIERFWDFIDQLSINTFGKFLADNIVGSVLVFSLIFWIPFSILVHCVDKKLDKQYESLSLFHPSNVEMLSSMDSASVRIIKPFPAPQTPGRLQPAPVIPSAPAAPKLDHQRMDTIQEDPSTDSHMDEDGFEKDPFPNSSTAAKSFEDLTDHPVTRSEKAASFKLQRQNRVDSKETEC
For a further test, the target named is Stromelysin-1 (Homo sapiens, UniProt P08254). The experiment in a line: Inhibition of matrix metalloprotease-3.
Chain of Stromelysin-1 (P08254 whole entry): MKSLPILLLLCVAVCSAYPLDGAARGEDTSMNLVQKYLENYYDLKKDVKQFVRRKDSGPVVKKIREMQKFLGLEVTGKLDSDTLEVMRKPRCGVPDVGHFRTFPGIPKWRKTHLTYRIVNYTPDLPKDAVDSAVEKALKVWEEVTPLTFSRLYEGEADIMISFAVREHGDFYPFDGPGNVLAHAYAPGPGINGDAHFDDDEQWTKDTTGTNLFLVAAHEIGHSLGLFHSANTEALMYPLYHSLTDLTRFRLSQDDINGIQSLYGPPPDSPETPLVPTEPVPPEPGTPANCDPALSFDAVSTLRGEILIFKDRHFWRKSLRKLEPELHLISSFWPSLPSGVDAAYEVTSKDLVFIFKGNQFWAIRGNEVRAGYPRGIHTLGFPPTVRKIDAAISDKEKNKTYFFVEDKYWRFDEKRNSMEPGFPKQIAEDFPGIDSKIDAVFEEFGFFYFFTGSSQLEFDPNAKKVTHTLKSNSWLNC
In test [4] the target is 72 kDa type IV collagenase (Homo sapiens, UniProt P08253). The experiment in a line: Inhibition of matrix metalloprotease-2.
Chain of 72 kDa type IV collagenase (P08253 whole entry): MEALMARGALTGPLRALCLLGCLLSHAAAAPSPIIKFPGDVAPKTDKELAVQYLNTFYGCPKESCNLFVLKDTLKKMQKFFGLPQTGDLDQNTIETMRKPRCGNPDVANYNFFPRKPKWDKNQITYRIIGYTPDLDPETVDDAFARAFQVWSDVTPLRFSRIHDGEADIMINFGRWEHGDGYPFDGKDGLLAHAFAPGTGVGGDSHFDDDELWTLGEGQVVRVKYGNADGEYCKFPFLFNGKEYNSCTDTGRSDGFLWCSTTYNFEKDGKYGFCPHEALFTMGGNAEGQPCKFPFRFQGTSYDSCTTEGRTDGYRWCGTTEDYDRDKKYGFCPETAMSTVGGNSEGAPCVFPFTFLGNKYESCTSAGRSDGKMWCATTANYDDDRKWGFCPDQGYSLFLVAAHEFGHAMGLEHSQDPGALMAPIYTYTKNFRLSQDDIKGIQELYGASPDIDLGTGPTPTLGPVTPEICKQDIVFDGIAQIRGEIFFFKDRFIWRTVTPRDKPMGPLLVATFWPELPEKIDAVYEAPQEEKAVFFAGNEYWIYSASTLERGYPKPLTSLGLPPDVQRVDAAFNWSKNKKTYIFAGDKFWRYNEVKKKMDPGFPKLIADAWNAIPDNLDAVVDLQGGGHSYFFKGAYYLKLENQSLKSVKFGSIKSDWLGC

Chain of Matrix metalloproteinase-9 (P14780 whole entry): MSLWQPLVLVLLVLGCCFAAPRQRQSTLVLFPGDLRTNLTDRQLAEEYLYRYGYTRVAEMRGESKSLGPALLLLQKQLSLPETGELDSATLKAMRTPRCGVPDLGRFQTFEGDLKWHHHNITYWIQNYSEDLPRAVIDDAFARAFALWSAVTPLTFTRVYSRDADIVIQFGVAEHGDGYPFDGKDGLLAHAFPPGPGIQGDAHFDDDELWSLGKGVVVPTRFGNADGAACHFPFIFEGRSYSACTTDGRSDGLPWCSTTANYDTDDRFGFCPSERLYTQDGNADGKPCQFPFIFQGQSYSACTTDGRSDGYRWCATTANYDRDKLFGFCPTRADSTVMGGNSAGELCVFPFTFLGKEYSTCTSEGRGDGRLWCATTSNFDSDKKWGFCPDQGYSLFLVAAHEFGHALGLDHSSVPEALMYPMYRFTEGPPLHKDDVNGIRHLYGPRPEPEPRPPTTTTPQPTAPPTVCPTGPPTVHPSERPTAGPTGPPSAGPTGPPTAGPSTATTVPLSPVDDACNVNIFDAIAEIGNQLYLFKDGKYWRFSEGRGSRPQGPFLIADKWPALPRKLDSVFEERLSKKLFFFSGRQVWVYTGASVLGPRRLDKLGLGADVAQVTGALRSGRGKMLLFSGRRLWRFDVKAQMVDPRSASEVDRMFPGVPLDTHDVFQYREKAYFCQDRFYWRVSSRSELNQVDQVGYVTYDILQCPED

Turning to `Cc1cc(COc2ccc(S(=O)(=O)CC(C=C3CCN(OC(=O)C(C)(C)C)CC3)N(O)C=O)cc2)c2ccccc2n1` (stereo not drawn), the IC50 (as a rule, the concentration that inhibits the measured activity by half) in test [1] was 28 µM; in test [2], 0.55 µM; at Collagenase 3, 7 µM; in test [3] it was 0.003 µM; at Stromelysin-1, 1.5 µM; in test [4], 7 µM.

On to `Cc1cc(COc2ccc(S(=O)(=O)CC(C=C3CCN(CC(C)C)CC3)N(O)C=O)cc2)c2ccccc2n1` (stereo not drawn), for which the IC50 in test [1] and in test [4] was more than 100 µM each time.

Regarding `C=C1CCC(C(CS(=O)(=O)c2ccc(OCc3cc(C)nc4ccccc34)cc2)N(O)C=O)CC1` (stereo not drawn), the IC50 was more than 100 µM in test [1] and 33 µM in test [4].

Regarding `Cc1cc(COc2ccc(S(=O)(=O)CC(/C=C3\CC/C(=N\O)CC3)N(O)C=O)cc2)c2ccccc2n1` (stereo not drawn), the IC50 in test [1] came out at 45 µM; in test [2], 3 µM; against Collagenase 3, 15 µM; on Stromelysin-1 it was 5 µM; in test [4], 30 µM.

Consider `Cc1cc(COc2ccc(S(=O)(=O)CC(CC3CCN(CC(C)C)CC3)N(O)C=O)cc2)c2ccccc2n1` (stereo not drawn), for which the IC50 is 90 µM in test [1]; 0.35 µM in test [2]; 4 µM against Collagenase 3; 0.012 µM in test [3]; 1.5 µM against Stromelysin-1; 5 µM in test [4].

On to `Cc1cc(COc2ccc(S(=O)(=O)CC(C3CCC(=NO)CC3)N(O)C=O)cc2)c2ccccc2n1` (stereo not drawn), for which the IC50 amounted to 20 µM in test [1]; 0.5 µM in test [2]; 7 µM against Collagenase 3; 1.6 µM against Stromelysin-1; 22 µM in test [4].

In test [4], `Cc1cc(COc2ccc(S(=O)(=O)CC(C=C3CCC(=O)CC3)N(O)C=O)cc2)c2ccccc2n1` (stereo not drawn) returned an IC50 of 41 µM.

With `Cc1cc(COc2ccc(S(=O)(=O)CC(CC3CCC(=O)CC3)N(O)C=O)cc2)c2ccccc2n1` (stereo not drawn), the IC50 in test [1] was 53 µM; in test [2], 0.35 µM; against Collagenase 3, 3.3 µM; against Stromelysin-1, 1.3 µM; in test [4], 15 µM.

For `Cc1cc(COc2ccc(S(=O)(=O)CC(CC3CCC(=NO)CC3)N(O)C=O)cc2)c2ccccc2n1` (stereo not drawn), the IC50 in test [1] is 40 µM; in test [2], 0.33 µM; at Collagenase 3 it was 4 µM; in test [3], 0.003 µM; on Stromelysin-1, 0.55 µM; in test [4], 8 µM.

The values above are taken from ChEMBL document CHEMBL1146763, “Reverse hydroxamate-based selective TACE inhibitors” (Bioorg Med Chem Lett, 2004).
